The nature of experiment [1]: Antagonist activity at human D3 receptor expressed in HEK293 cells assessed as inhibition of quinpirole-stimulated mitogenesis.
A short description of experiment [2]: Agonist activity at human D3 receptor expressed in HEK293 cells assessed as stimulation of mitogenesis.

In the case of `O=C(NCCC(O)CN1CCN(c2cccc(Cl)c2Cl)CC1)c1cc2cc(I)ccc2[nH]1` (centres undefined), the IC50 (as a rule, the point on the concentration scale where inhibition reaches its midpoint) in experiment [1] is 0.038 µM.

`COc1ccccc1N1CCN(CC(O)CCNC(=O)c2cc3cc(F)ccc3[nH]2)CC1` (centres undefined): the IC50 in experiment [1] worked out at 0.00176 µM.

With `COc1ccccc1N1CCN(CCCCNC(=O)c2cc3ccccc3s2)CC1` [Benzo[b]thiophene-2-carboxylic acid {4-[4-(2-methoxy-phenyl)-piperazin-1-yl]-butyl}-amide], the half-maximal inhibitory concentration (IC50) in experiment [1] stood at 0.00022 µM.

As to `O=C(NCCC(O)CN1CCN(c2cccc(Cl)c2Cl)CC1)c1cc2ccccc2o1` (centres undefined), the EC50 (commonly the concentration that produces a half-maximal response) in experiment [2] amounted to 0.0228 µM.

Consider `O=C(NC/C=C/CN1CCN(c2cccc(Cl)c2Cl)CC1)c1cc2ccccc2[nH]1`, for which the 50% inhibitory concentration (IC50) in experiment [1] was found to be 0.007 µM.

As for `COc1ccccc1N1CCN(CCCCNC(=O)c2cc3ccccc3o2)CC1` [Benzofuran-2-carboxylic acid {4-[4-(2-methoxy-phenyl)-piperazin-1-yl]-butyl}-amide], the IC50 in experiment [1] turned out to be 0.00239 µM.

Take `COc1ccccc1N1CCN(C/C=C/CNC(=O)c2cc3ccccc3s2)CC1`: in experiment [1], the IC50 stood at 0.00109 µM.

As for `COc1ccccc1N1CCN(CC(O)CCNC(=O)c2cc3cc(I)ccc3o2)CC1` (centres undefined), the IC50 in experiment [1] amounted to 0.0145 µM.

Take `COc1ccc2[nH]c(C(=O)NCCC(O)CN3CCN(c4cccc(Cl)c4Cl)CC3)cc2c1` (centres undefined): the IC50 in experiment [1] is 0.00151 µM.

As to `O=C(NCC(O)CCN1CCN(c2cccc(Cl)c2Cl)CC1)c1cc2ccccc2[nH]1` (centres undefined), the IC50 in experiment [1] was 0.0257 µM.

Turning to `COc1ccccc1N1CCN(CC(O)CCNC(=O)c2cc3cc(I)ccc3[nH]2)CC1` (centres undefined), the IC50 in experiment [1] amounted to 0.173 µM.

For `CCCOc1ccccc1N1CCN(CC(O)CCNC(=O)c2cc3ccccc3[nH]2)CC1` (centres undefined), in experiment [1], the IC50 was determined as 0.00651 µM.

As to `COc1ccccc1N1CCN(CC(O)CCNC(=O)c2cc3ccccc3o2)CC1` (centres undefined), the half-maximal inhibitory concentration (IC50) in experiment [1] is 0.0112 µM.

As for `O=C(NCCC(O)CN1CCN(c2cccc(Cl)c2Cl)CC1)c1cc2cc(I)ccc2o1` (centres undefined), the concentration for a half-maximal effect (EC50) in experiment [2] was 0.084 µM.

Regarding `COc1ccccc1N1CCN(CC(O)CCNC(=O)c2cc3ccccc3[nH]2)CC1` (centres undefined), the IC50 in experiment [1] is 0.0121 µM.

Regarding `COc1ccccc1N1CCN(CCCCNC(=O)c2cc3cc(I)ccc3o2)CC1` [5-Iodo-benzofuran-2-carboxylic acid {4-[4-(2-methoxy-phenyl)-piperazin-1-yl]-butyl}-amide], in experiment [1], the IC50 was 0.0229 µM.

In the case of `COc1ccccc1N1CCN(C/C=C/CNC(=O)c2cc3ccccc3o2)CC1`, the IC50 in experiment [1] was found to be 0.0149 µM.

As to `COc1ccccc1N1CCN(CC(O)CCNC(=O)c2cc3ccccc3s2)CC1` (centres undefined), the half-maximal inhibitory concentration (IC50) in experiment [1] came to 0.0391 µM.

As for `COc1ccc2[nH]c(C(=O)NCCC(O)CN3CCN(c4ccccc4OC)CC3)cc2c1` (centres undefined), the IC50 in experiment [1] was 0.00158 µM.

The record behind these values is BindingDB's records for doi:10.1021/jm900095y (National Institute On Drug Abuse-Intramural Research Program, 2009).
